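Test compounds were applied to cells in 96-well plates for 48 hours at 5 doses. The concentration for 50% growth inhibition is given as GI50. TGI: total growth inhibition.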
Assays:
Test in all cases: growth of human tumour cells (NCI), 48 h
786-0 renal = tested on: 786-0 renal
A498 renal = tested on: A498 renal
A549 NSCLC = tested on: A549 NSCLC
ACHN renal = tested on: ACHN renal
BT-549 breast = tested on: BT-549 breast
CAKI-1 renal = tested on: CAKI-1 renal
CCRF-CEM leukemia = tested on: CCRF-CEM leukemia
DU-145 prostate = tested on: DU-145 prostate
EKVX NSCLC = tested on: EKVX NSCLC
HCC-2998 colon = tested on: HCC-2998 colon
HCT-116 colon = tested on: HCT-116 colon
HCT-15 colon = tested on: HCT-15 colon
HL-60(TB) leukemia = tested on: HL-60(TB) leukemia
HOP-62 NSCLC = tested on: HOP-62 NSCLC
HOP-92 NSCLC = tested on: HOP-92 NSCLC
HS 578T breast = tested on: HS 578T breast
HT29 colon = tested on: HT29 colon
IGROV1 ovarian = tested on: IGROV1 ovarian
KM12 colon = tested on: KM12 colon
LOX IMVI melanoma = tested on: LOX IMVI melanoma
M14 melanoma = tested on: M14 melanoma
MALME-3M melanoma = tested on: MALME-3M melanoma
MCF7 breast = tested on: MCF7 breast
MDA-MB-231 breast = tested on: MDA-MB-231 breast
MDA-MB-435 = tested on: MDA-MB-435
MOLT-4 leukemia = tested on: MOLT-4 leukemia
NCI-H226 lung = tested on: NCI-H226 lung
NCI-H23 lung = tested on: NCI-H23 lung
NCI-H460 lung = tested on: NCI-H460 lung
NCI-H522 lung = tested on: NCI-H522 lung
NCI/ADR-RES ovarian = tested on: NCI/ADR-RES ovarian
OVCAR-3 ovarian = tested on: OVCAR-3 ovarian
OVCAR-4 ovarian = tested on: OVCAR-4 ovarian
OVCAR-5 ovarian = tested on: OVCAR-5 ovarian
OVCAR-8 ovarian = tested on: OVCAR-8 ovarian
PC-3 prostate = tested on: PC-3 prostate
RPMI-8226 leukemia = tested on: RPMI-8226 leukemia
RXF 393 renal = tested on: RXF 393 renal
SF-268 CNS = tested on: SF-268 CNS
SF-539 CNS = tested on: SF-539 CNS
SK-MEL-2 melanoma = tested on: SK-MEL-2 melanoma
SK-MEL-28 melanoma = tested on: SK-MEL-28 melanoma
SK-MEL-5 melanoma = tested on: SK-MEL-5 melanoma
SK-OV-3 ovarian = tested on: SK-OV-3 ovarian
SN12C renal = tested on: SN12C renal
SNB-19 CNS = tested on: SNB-19 CNS
SNB-75 CNS = tested on: SNB-75 CNS
SR leukemia = tested on: SR leukemia
SW-620 colon = tested on: SW-620 colon
T-47D breast = tested on: T-47D breast
TK-10 renal = tested on: TK-10 renal
U251 CNS = tested on: U251 CNS
UACC-257 melanoma = tested on: UACC-257 melanoma
UACC-62 melanoma = tested on: UACC-62 melanoma
UO-31 renal = tested on: UO-31 renal

Clc1ccc(C(Cn2ccnc2)OCc2ccsc2Cl)c(Cl)c1 (centres undefined)
GI50 (786-0 renal): 2970 nM
TGI (786-0 renal): 9.89 µM
GI50 (A498 renal): 2330 nM
TGI (A498 renal): 13.9 µM
GI50 (A549 NSCLC): 3.12 µM
TGI (A549 NSCLC): 14.2 µM
GI50 (ACHN renal): 4.17 µM
TGI (ACHN renal): 15 µM
GI50 (BT-549 breast): 2920 nM
TGI (BT-549 breast): 9.01 µM
GI50 (CAKI-1 renal): 2050 nM
TGI (CAKI-1 renal): 7.36 µM
GI50 (CCRF-CEM leukemia): 2400 nM
TGI (CCRF-CEM leukemia): 7.74 µM
GI50 (DU-145 prostate): 7.69 µM
TGI (DU-145 prostate): 20.6 µM
GI50 (EKVX NSCLC): 2510 nM
TGI (EKVX NSCLC): 13.4 µM
GI50 (HCC-2998 colon): 2730 nM
TGI (HCC-2998 colon): 9.46 µM
GI50 (HCT-116 colon): 2840 nM
TGI (HCT-116 colon): 10.6 µM
GI50 (HCT-15 colon): 3.95 µM
TGI (HCT-15 colon): 14.2 µM
GI50 (HL-60(TB) leukemia): 1820 nM
TGI (HL-60(TB) leukemia): 4.96 µM
GI50 (HOP-62 NSCLC): 4.92 µM
TGI (HOP-62 NSCLC): 16.9 µM
GI50 (HOP-92 NSCLC): 1600 nM
TGI (HOP-92 NSCLC): 5.93 µM
GI50 (HS 578T breast): 4.44 µM
TGI (HS 578T breast): > 100 µM
GI50 (HT29 colon): 2730 nM
TGI (HT29 colon): 9.34 µM
GI50 (IGROV1 ovarian): 3.15 µM
TGI (IGROV1 ovarian): 14 µM
GI50 (KM12 colon): 3.01 µM
TGI (KM12 colon): 13.5 µM
GI50 (LOX IMVI melanoma): 2510 nM
GI50 (M14 melanoma): 2720 nM
TGI (M14 melanoma): 8.27 µM
GI50 (MALME-3M melanoma): 2620 nM
TGI (MALME-3M melanoma): 8.62 µM
GI50 (MCF7 breast): 3.24 µM
TGI (MCF7 breast): 14.4 µM
GI50 (MDA-MB-231 breast): 4.34 µM
TGI (MDA-MB-231 breast): 18.6 µM
GI50 (MDA-MB-435): 2160 nM
TGI (MDA-MB-435): 5.59 µM
GI50 (MOLT-4 leukemia): 2400 nM
TGI (MOLT-4 leukemia): 10.5 µM
GI50 (NCI-H226 lung): 5.62 µM
TGI (NCI-H226 lung): 30.7 µM
GI50 (NCI-H23 lung): 2180 nM
TGI (NCI-H23 lung): 8.77 µM
GI50 (NCI-H460 lung): 2840 nM
TGI (NCI-H460 lung): 10.1 µM
GI50 (NCI-H522 lung): 2700 nM
TGI (NCI-H522 lung): 9.52 µM
GI50 (NCI/ADR-RES ovarian): 1910 nM
TGI (NCI/ADR-RES ovarian): 5.71 µM
GI50 (OVCAR-3 ovarian): 5.11 µM
TGI (OVCAR-3 ovarian): 16.4 µM
GI50 (OVCAR-4 ovarian): 2340 nM
TGI (OVCAR-4 ovarian): 12.7 µM
GI50 (OVCAR-5 ovarian): 4.91 µM
TGI (OVCAR-5 ovarian): 18.2 µM
GI50 (OVCAR-8 ovarian): 3.05 µM
TGI (OVCAR-8 ovarian): 14.3 µM
GI50 (PC-3 prostate): 2070 nM
TGI (PC-3 prostate): 7.62 µM
GI50 (RPMI-8226 leukemia): 1810 nM
TGI (RPMI-8226 leukemia): 5.53 µM
GI50 (RXF 393 renal): 3.17 µM
TGI (RXF 393 renal): 12.8 µM
GI50 (SF-268 CNS): 4.73 µM
TGI (SF-268 CNS): 30 µM
GI50 (SF-539 CNS): 4.23 µM
TGI (SF-539 CNS): 14.9 µM
GI50 (SK-MEL-2 melanoma): 2400 nM
TGI (SK-MEL-2 melanoma): 5.67 µM
GI50 (SK-MEL-28 melanoma): 4.18 µM
TGI (SK-MEL-28 melanoma): 15.3 µM
GI50 (SK-MEL-5 melanoma): 1910 nM
TGI (SK-MEL-5 melanoma): 4.21 µM
GI50 (SK-OV-3 ovarian): 5.08 µM
TGI (SK-OV-3 ovarian): 16.8 µM
GI50 (SN12C renal): 4.74 µM
TGI (SN12C renal): 18.7 µM
GI50 (SNB-19 CNS): 5.41 µM
TGI (SNB-19 CNS): 20.6 µM
GI50 (SNB-75 CNS): 2320 nM
TGI (SNB-75 CNS): 8.22 µM
GI50 (SR leukemia): 2280 nM
TGI (SR leukemia): 7.62 µM
GI50 (SW-620 colon): 3.27 µM
TGI (SW-620 colon): 12.3 µM
GI50 (T-47D breast): 4.04 µM
TGI (T-47D breast): 16.9 µM
GI50 (TK-10 renal): 3.31 µM
TGI (TK-10 renal): 11.2 µM
GI50 (U251 CNS): 2790 nM
TGI (U251 CNS): 11.2 µM
GI50 (UACC-257 melanoma): 3.01 µM
TGI (UACC-257 melanoma): 11.8 µM
GI50 (UACC-62 melanoma): 3.72 µM
TGI (UACC-62 melanoma): 14.3 µM
GI50 (UO-31 renal): 2810 nM
TGI (UO-31 renal): 11.1 µM
